According to patent US8697840B2, “Peptide inhibition of lung epithelial apoptosis and pulmonary fibrosis” (Board of Regents, The University of Texas System, priority 2008, dated 2014):

How the values were obtained:
p53 [1] = experiment: Western blot of lung homogenates of bleo-treated mice: p53; assay type: in vivo, mouse; conditions: 40 μg bleomycin intranasally, 10 mM peptide i.p. by 0.1 ml osmotic pump after 24 h, day 7
Method: (§1) Mice were treated intranasally with 50 μl saline (SAL; control) or an equal volume of a 40 μg bleomycin solution (Bleo). After 24 h, 10 mM PP-1 (“Bleo+PP-1”) or control peptide (Bleo+CP-1) were given intraperitoneally using a 0.1 ml osmotic pump. Lungs were excised on day 7, bronchoalveolar lavage (BAL) fluid (“B”), lung homogenates (“H”) and membrane proteins (uPAR) were analyzed by Western blotting using antibodies specific for the murine proteins. (The same blot (“H”) was then stripped and analyzed for β-actin confirm equivalent loading of the lanes)
(§2) Mice were treated intranasally with 50 μl saline or an equal volume of a 40 μg bleomycin solution. After 24 h, 10 mM PP-1 or the same concentration of control peptide CP-1 were given intraperitoneally using a 0.1 ml osmotic pump. Lungs were excised on day 7.
(§3) Lung tissue was chopped into small pieces with fine scissors and rinsed 3× with PBS. The tissues were then homogenized in 1 ml of extraction buffer (25 mM Tris-HCl, pH 7.9. 0.5 mM EDTA and 0.1 mM PMSF) and the homogenate was centrifuged at 12,000 g for 15 min at 4° C. […] Protein content was measured using a BioRad protein assay kit. […] Protein was detected by enhanced chemiluminescence (ECL). […]
(§4) Mice were treated intranasally with saline (controls) are indicated (SAL). […] (The same blot (H) was later stripped and analyzed for β-actin confirm equivalent loading of the lanes)

uPA [2] = experiment: Western blot of lungs of bleo-treated mice: uPA; assay type: in vivo, mouse; conditions: 40 μg bleomycin intranasally, 10 mM peptide i.p. by 0.1 ml osmotic pump after 24 h, day 7
Method: as §1, §2, §3, §4

[3] = tested on: bleomycin-induced lung epithelial cell (LEC) apoptosis; experiment: TUNEL staining for apoptosis of lung sections of bleo-treated mice; assay type: in vivo, mouse; conditions: for Lung epithelial cell apoptosis: appearance of cells / Lung epithelial cell apoptosis: cell death: bleo-treated animals, peptide one day after bleo; for Lung epithelial cell apoptosis: appearance of cells: lung tissue day 21; for Lung epithelial cell apoptosis: cell death: lung tissue day 21, TUNEL; for apoptosis (TUNEL positive cells): peptide 4.5 μM i.p. on day 1 and 2, bleomycin 40 μg/50 μl intranasal on day 2, 24, 48 and 72 h
Method: The mice were sacrificed 24, 48 and 72 h later. Lungs were excised, inflated and fixed in formalin, and […] sections were analyzed by TUNEL staining. […]

p53 [4] = experiment: IHC of lung tissue of bleo-treated mice: p53; assay type: in vivo, mouse; conditions: bleomycin-treated mice, 24-72 h
Method: (§5) For immunohistochemical (IHC) analysis, lungs were inflated at constant pressure of 20 cm H2O, removed and fixed overnight in 2% paraformaldehyde in PBS. Tissue was dehydrated by passage through a standard alcohol series and was embedded in paraffin. 5 μm sections were deparaffinized with xylene followed by incubation with 100% and 95% alcohol. After 10 min of antigen retrieval, the slides were incubated with H2O2 for 30 min to quench endogenous peroxidase. Slides were incubated overnight with the respective antibodies in PBS containing 0.1% Tween 20 and further processed using Lab vision kit (Freemont Calif.).
(§6) An IHC study was conducted to analyze lung tissue for expression p53, uPA, uPAR, PAI-1 and cleaved caspase 3 (Table 2). […] These IHC observations were confirmed by Western blotting (see Example II and FIG. 5).

uPAR = experiment: IHC of lung tissue of bleo-treated mice: uPAR; assay type: in vivo, mouse; conditions: bleomycin-treated mice, 48-72 h
Method: as §5, §6

uPA [5] = experiment: IHC of lung tissue of bleo-treated mice: uPA; assay type: in vivo, mouse; conditions: bleomycin-treated mice, 48-72 h
Method: as §5, §6

[6] = tested on: bleo-induced lung injury in the mouse; experiment: Lung hydroxyproline (collagen deposition) after bleo-induced lung injury; assay type: in vivo; conditions: for lung hydroxyproline levels: 50 μg Bleo intranasally, 10 mM peptide in 0.1 ml osmotic pump i.p. one day later, lungs after 21 days
Method: (§7) FIGS. 10A and 10B are graphs showing the effect of PP-1 on fibrosis following bleo-induced lung injury in the mouse. […] 24 h after bleo, 0.1 ml osmotic pump filled with 10 mM PP-1 (designated “Bleo+PP” in Figures) or CP1 control scrambled peptide (“Bleo+CP1”) were implanted intraperitoneally. Lungs were harvested after 21 days, homogenized and the homogenates were subjected to the analysis of hydroxyproline or desmosine levels.
Anesthetized mice received intranasal bleomycin HCl solution containing 40 μg/50μl in sterile saline solution. After 24 h, 7 days or 14 days 10 mM PP-1 (“Bleo+PP-1”) or control peptide (Bleo+CP-1) were given ip using a 0.1 ml osmotic pump. Mice were sacrificed and lungs excised 21 days later. Lung homogenates were analyzed for hydroxyproline. Results are expressed a % of control hydroxyproline concentration.
Anesthetized mice received intranasal bleomycin HCl solution containing 40 μg/50 μl in sterile saline solution. After day 7, 10 mM peptide PP-2 (“Bleo+PP-2”) or control peptide (“Bleo+CP-2) were given intraperitoneally using a 0.1 ml osmotic pump. Lungs were excised after 21 days, lungs were homogenized and the homogenates were analyzed for hydroxyproline. Results are expressed a % of control hydroxyproline concentration.
The hPro content of the whole mouse lungs tissues were measured using the technique of Woessner J F, 1961, Arch. Biochem. Biophys. 93:440-7). Lung tissue from each animal was homogenized in 1.0 ml of extraction buffer. One ml 12N HCl was added, and the samples were hydrolyzed at 110° C. for 24 h. After cooling, 5 μl of the samples were mixed with 5 μl of citrate-acetate buffer (5% citric acid, 1.2% glacial acetic acid, 7.25% sodium acetate and 3.4% sodium hydroxide) and 100 μl of chloramine-T solution (1.4% chloramine-T, 10% N-propanol, and 80% citrate acetate buffer) in 96 well plates. The mixture was incubated for 20 min at room temperature. A total of 100 μl of Ehrlich's solution (2.5 g p-dimethylaminobenzaldehyde added to 9.3 ml of n-propanol and 3.9 ml of 70% perchloric acid) was added to each well and the plates incubated at 65° C. for 18 min. The absorbance of each sample was measured at 550 nm. Standard curves were generated for each experiment using a known concentration of reagent hPro. Results were expressed as % changes in hPro content (with total hPro content of saline-treated control mouse lungs considered 100%).
(§8) Lungs were harvested after 21 days, homogenized and the homogenates were subjected to the analysis of hydroxyproline as above (FIG. 10A) or desmosine (FIG. 10B). The effect of PP-1 on fibrosis in bleo-induced mouse lung injury was evaluated. Mice were treated with saline or 50 μg Bleo intranasally were implanted one day later with, 0.1 ml osmotic pumps i.p. The pumps were filled with either 10 mM (2.92 mg/100 μl) PP-1 (“Bleo+PP-1”) or control scrambled peptide CP-1 (“Bleo+CP-1”).

[7] = tested on: bleo-induced lung injury in the mouse; experiment: Lung desmosine (elastin) after bleo-induced lung injury; assay type: in vivo; conditions: 50 μg Bleo intranasally; 10 mM peptide in 0.1 ml osmotic pump i.p. one day later; lungs after 21 days
Method: as §7, §8

Row | Substance | p53 expression in lung homogenates (p53 [1]) | uPA levels in lung (uPA [2]) | Lung epithelial cell apoptosis: appearance of cells [3] | Lung epithelial cell apoptosis: cell death [3] | apoptosis (TUNEL positive cells) [3] | p53 expression in lung tissue (IHC) (p53 [4]) | uPAR levels in lung tissue (IHC) (uPAR) | uPA levels in lung tissue (IHC) (uPA [5]) | lung hydroxyproline levels [6] | lung desmosine levels [7] | bleo-induced mouse lung injury (TUNEL staining for apoptosis) ([3]; bleo 50 μg/ml intranasal, peptide intranasally 3.35 μM (375 μg/50 μl) on day 2, 4 and 6, lungs after 21 days) | protection of LECs from bleo-induced lung injury ([3]; conclusion from Table 3, day 21) [%] | bleo-induced LEC apoptosis (apoptotic scores) ([3]; i.p. 0.1 ml osmotic minipump, 10 mM peptide, one day after intranasal bleo, lungs after 16 days) | bleomycin-induced collagen deposition (hydroxyproline, % of control) ([6]; bleomycin 40 μg/50 μl intranasal, 10 mM peptide i.p. osmotic pump after 24 h, 7 days or 14 days, lungs 21 days)
1 | Bleomycin | increased | suppression | Fibrotic cells, | 80% cell death | increased apoptosis (TUNEL positive cells) as early as 24 h after exposure | induced p53 expression beginning at 48 h and increasing up to 72 h | uPA and uPAR levels fell between 48-72 h of bleomycin exposure | uPA and uPAR levels fell between 48-72 h of bleomycin exposure | significant increase in lung hydroxyproline or desmosine levels | significant increase in lung hydroxyproline or desmosine levels |  |  |  | 
2 | DGIWKASFTTFTVTKYWFYR [PP-1, residues 82-101 of human Cav-1, the caveolin-1 scaffolding domain] | inhibited the increased p53 and PAI-1 expression | enhanced the suppressed uPA and uPAR levels | No fibrosis, | 12% cell | reversed bleomycin-induced apoptosis | blocked bleomycin induced p53 expression | reversed this suppression | reversed this suppression | significantly reduced, to normal levels | significantly reduced, to normal levels | prevented bleo-induced mouse lung injury in vivo | > 90 | protect against bleo-induced LEC apoptosis | significantly inhibited bleomycin-induced collagen deposition and lung fibrosis
